# Test results taken from ChEMBL document CHEMBL1287767, “Experimental solubility profiling of marketed CNS drugs, exploring solubility limit of CNS discovery candidate” (Bioorg Med Chem Lett, 2010).
# Key:
# [1] = Solubility of the compound in 0.1 M phosphate buffer at 600 uM at pH 7.4 after 24 hrs by LC/MS/MS analysis; details: for solubility at 24 h, 600 µM: pH 7.4
# [2] = Solubility of the compound at pH 7.95; format: physicochemical; details: buffer
# [3] = Solubility of the compound at pH 7.4; format: physicochemical; details: buffer
# [4] = Solubility of the compound; format: physicochemical
# [5] = Solubility of the compound in water; format: physicochemical
# [6] = Solubility of the compound in water at pH 7; format: physicochemical
# [7] = Solubility of the compound in Mcllvaine buffer at pH 7.4; format: physicochemical; details: McIlvaine buffer
# [8] = Solubility of the compound in PBS at pH 7.4; format: physicochemical
# [9] = Solubility of the compound in water at pH 7.4; format: physicochemical
SMILES,"solubility at 24 h, 600 µM ([1]; 0.1 M phosphate buffer) [µM]",other results
OCCOCCN1CCN(C2=Nc3ccccc3Sc3ccccc32)CC1 [QUETIAPINE],,"solubility at 24 h, 600 µM ([1]; buffer): 310 µM"
CCc1nn(CCCN2CCN(c3cccc(Cl)c3)CC2)c(=O)n1CCOc1ccccc1 [NEFAZODONE],9.9,
Cc1ncc2n1-c1ccc(Cl)cc1C(c1ccccc1F)=NC2 [MIDAZOLAM],392,solubility [2]: 55 µg/mL
O=C1CC2(CCCC2)CC(=O)N1CCCCN1CCN(c2ncccn2)CC1 [BUSPIRONE],> 500,
CCCN(CCC)C(=O)Cc1c(-c2ccc(Cl)cc2)nc2ccc(Cl)cn12 [ALPIDEM],0.75,solubility [3]: 0.1 µM
O=C1Cc2cc(CCN3CCN(c4nsc5ccccc45)CC3)c(Cl)cc2N1 [ZIPRASIDONE],1.05,solubility [4]: 0.08 µg/mL
CCOc1ccccc1OC(c1ccccc1)C1CNCCO1 (centres undefined) [REBOXETINE],> 500,
O=C(NCCN1CCOCC1)c1ccc(Cl)cc1 [MOCLOBEMIDE],> 500,
Cc1nnc2n1-c1ccc(Cl)cc1C(c1ccccc1Cl)=NC2 [TRIAZOLAM],35.9,
CNS(=O)(=O)Cc1ccc2[nH]cc(CCN(C)C)c2c1,> 500,
NC(=O)C[S+]([O-])C(c1ccccc1)c1ccccc1 (centres undefined) [MODAFINIL],> 500,
CCCN(CCC)CCc1cccc2c1CC(=O)N2 [ROPINIROLE],> 500,
O=C1NC(=O)C(c2ccccc2)(c2ccccc2)N1 [PHENYTOIN],80,solubility [5]: 0.032 mg/mL
Nc1c2c(nc3ccccc13)CCCC2 [TACRINE],,"solubility [5]: 0.217 mg/mL; solubility at 24 h, 600 µM ([1]; buffer): > 500 µM"
CN1CCN(C2=Nc3cc(Cl)ccc3Nc3ccccc32)CC1 [CLOZAPINE],> 420,
CCCN1C[C@H](CSC)C[C@@H]2c3cccc4[nH]cc(c34)C[C@H]21 [PERGOLIDE],2.1,
C=CC(N)CCC(=O)O (centres undefined) [VIGABATRIN],> 500,
CN[C@H]1CC[C@@H](c2ccc(Cl)c(Cl)c2)c2ccccc21 [SERTRALINE],,"solubility ([1]; buffer, pH 7.4, 24 h, 600 µM): 350 µM"
CCOC(=O)Nc1ccc(NCc2ccc(F)cc2)nc1N [FLUPIRTINE],> 500,
O=C(c1ccccc1)c1ccc2n1CCC2C(=O)O (centres undefined) [KETOROLAC],> 459,
CCN[C@@H](C)Cc1cccc(C(F)(F)F)c1 [DEXFENFLURAMINE],500,

SMILES,"solubility at 24 h, 600 µM ([1]; 0.1 M phosphate buffer) [µM]",other results
Cc1ccc(-c2nc3ccc(C)cn3c2CC(=O)N(C)C)cc1 [ZOLPIDEM],260,solubility [3]: > 250 µM
NCC1(CC(=O)O)CCCCC1 [GABAPENTIN],> 500,solubility [3]: 441 µg/mL
COC(=O)C(c1ccccc1)C1CCCCN1 (centres undefined) [METHYLPHENIDATE],411,
COC1=C(OC)C(=O)C(CCCCCCCCCCO)=C(C)C1=O [IDEBENONE],16,solubility [5]: 23.6 µM
NC(=O)CCC/N=C(\c1ccc(Cl)cc1)c1cc(F)ccc1O [PROGABIDE],55.2,
CCN(CC)C(=O)C1(c2ccccc2)CC1CN (centres undefined),> 500,
CCCC(CCC)C(=O)O [VALPROIC ACID],> 500,
CN1C[C@H](C(=O)N[C@]2(C)O[C@@]3(O)[C@@H]4CCCN4C(=O)[C@H](Cc4ccccc4)N3C2=O)C[C@@H]2c3cccc4[nH]cc(c34)C[C@H]21 [DIHYDROERGOTAMINE],37,
Cc1nnc2n1-c1ccc(Cl)cc1C(c1ccccc1)=NC2 [ALPRAZOLAM],213,solubility [6]: 40 µg/mL
CN1C2CCCC1CC(NC(=O)c1nn(C)c3ccccc13)C2 (centres undefined) [GRANISETRON],> 500,
Nc1nnc(-c2cccc(Cl)c2Cl)c(N)n1 [LAMOTRIGINE],307,solubility [7]: 0.48 µg/mL
CN1[C@@H]2CC[C@H]1C[C@@H](OC(=O)c1c[nH]c3ccccc13)C2 [TROPISETRON],> 500,
O=C1CC[C@@]2(O)[C@H]3Cc4ccc(O)c5c4[C@@]2(CCN3CC2CC2)[C@H]1O5 [NALTREXONE],> 500,
NC(=O)N1c2ccccc2CC(=O)c2ccccc21 [OXCARBAZEPINE],245,solubility [5]: 0.308 mg/mL
CN1CCC[C@@H]1Cc1c[nH]c2ccc(CCS(=O)(=O)c3ccccc3)cc12,> 500,
COc1cccc(C2(O)CCCCC2CN(C)C)c1 (centres undefined) [TRAMADOL],> 500,
OC[C@@H](O)CN1CCN(c2ccccc2)CC1 [LEVODROPROPIZINE],> 500,
CC(NC(C)(C)C)C(=O)c1cccc(Cl)c1 (centres undefined) [BUPROPION],328,"solubility ([8]; PBS, read-out: solubility): 10000 µg/mL"
CCCN[C@H]1CCc2nc(N)sc2C1 [PRAMIPEXOLE],,"solubility [4]: > 10000 µg/mL; solubility at 24 h, 600 µM ([1]; buffer): > 500 µM"
O=C1CCc2ccc(OCCCCN3CCN(c4cccc(Cl)c4Cl)CC3)cc2N1 [ARIPIPRAZOLE],1.03,
O=C1NCCN1CCN1CCC(c2cn(-c3ccc(F)cc3)c3ccc(Cl)cc23)CC1 [SERTINDOLE],18.1,

SMILES,"solubility at 24 h, 600 µM ([1]; 0.1 M phosphate buffer) [µM]",other results
Oc1ccc2c(c1)[C@@]13CCCC[C@@]1(O)[C@@H](C2)N(CC1CCC1)CC3 [BUTORPHANOL],> 500,
NC(=O)N1c2ccccc2C=Cc2ccccc21 [CARBAMAZEPINE],> 490,
CNCC[C@@H](Oc1ccccc1C)c1ccccc1 [ATOMOXETINE],> 500,
NS(=O)(=O)Cc1noc2ccccc12 [ZONISAMIDE],> 500,
Cc1cc2c(s1)Nc1ccccc1N=C2N1CCN(C)CC1 [OLANZAPINE],> 500,
CN(C)CCc1c[nH]c2ccc(C[C@H]3COC(=O)N3)cc12 [ZOLMITRIPTAN],> 500,
CC(C)CC(N(C)C)C1(c2ccc(Cl)cc2)CCC1 (centres undefined) [SIBUTRAMINE],143,
CN1CCN(C(=O)OC2c3nccnc3C(=O)N2c2ccc(Cl)cn2)CC1 (centres undefined) [ZOPICLONE],219,
CN1CCN2c3ncccc3Cc3ccccc3C2C1 (centres undefined) [MIRTAZAPINE],> 500,
CCC1(c2cccc(O)c2)CCCCN(C)C1 (centres undefined) [MEPTAZINOL],> 500,
CNS(=O)(=O)CCc1ccc2[nH]cc(C3CCN(C)CC3)c2c1,> 500,
CCc1cc2c(s1)-n1c(C)nnc1CN=C2c1ccccc1Cl [ETIZOLAM],> 480,
O=C(O[C@@H]1C[C@@H]2C[C@H]3C[C@H](C1)N2CC3=O)c1c[nH]c2ccccc12 [DOLASETRON],195,
O=C1CN=C(c2ccccc2Cl)c2cc([N+](=O)[O-])ccc2N1 [CLONAZEPAM],,"solubility [5]: < 0.1 mg/mL; solubility at 24 h, 600 µM ([1]; buffer): 30.2 µM"
C[C@@](Cc1ccc(O)c(O)c1)(NN)C(=O)O.O [CARBIDOPA],> 500,
CC(N)Cc1ccccc1 (centres undefined) [AMPHETAMINE],> 500,
O=C1CN=C(c2ccccn2)c2cc(Br)ccc2N1 [BROMAZEPAM],334,
CC(C)Cc1ccc(C(C)C(=O)O)cc1 (centres undefined) [IBUPROFEN],,"solubility ([8]; buffer): 6020 µg/mL; solubility at 24 h, 600 µM ([1]; buffer): > 500 µM"
Fc1ccccc1C1=NCC(=S)N(CC(F)(F)F)c2ccc(Cl)cc21 [QUAZEPAM],0.3,
CN(C)CCC[C@@]1(c2ccc(F)cc2)OCc2cc(C#N)ccc21 [ESCITALOPRAM],> 500,
Cc1nc2n(c(=O)c1CCN1CCC(c3noc4cc(F)ccc34)CC1)CCCC2 [RISPERIDONE],> 444,

SMILES,"solubility at 24 h, 600 µM ([1]; 0.1 M phosphate buffer) [µM]",other results
Cc1ccsc1C(=CCCN1CCC[C@@H](C(=O)O)C1)c1sccc1C [TIAGABINE],> 500,
CC1(C)O[C@@H]2[C@@H](CO[C@@]3(COS(N)(=O)=O)OC(C)(C)O[C@@H]23)O1 [TOPIRAMATE],> 500,solubility [5]: 9.8 mg/mL
Fc1ccc([C@@H]2CCNC[C@H]2COc2ccc3c(c2)OCO3)cc1 [PAROXETINE],> 500,
CN(C)CCc1c[nH]c2ccc(Cn3cncn3)cc12 [RIZATRIPTAN],> 500,
NC(=O)OCC(COC(N)=O)c1ccccc1 [FELBAMATE],> 500,
CC[C@@H](C(N)=O)N1CCCC1=O,> 500,solubility [5]: 1000 mg/mL
CCCCCc1cc(O)c2c(c1)OC(C)(C)[C@@H]1CCC(C)=C[C@@H]21 [DRONABINOL],> 500,
CN1C(=O)CN=C(c2ccccc2F)c2cc([N+](=O)[O-])ccc21 [FLUNITRAZEPAM],54,
C=CCN1CCc2nc(N)sc2CC1 [TALIPEXOLE],133,
CCC(=O)O[C@](Cc1ccccc1)(c1ccccc1)[C@H](C)CN(C)C [PROPOXYPHENE],250,
COCC1CN=C(c2ccccc2Cl)c2cc(Br)ccc2N1C (centres undefined) [METACLAZEPAM],3.52,
CNCC[C@H](Oc1cccc2ccccc12)c1cccs1 [DULOXETINE],,"solubility at 24 h, 600 µM ([1]; buffer): > 500 µM"
CCCCN1CCCCC1C(=O)Nc1c(C)cccc1C (centres undefined) [BUPIVACAINE],352,solubility [9]: 420 µg/mL
Cc1ccc(C(=O)c2cc(O)c(O)c([N+](=O)[O-])c2)cc1 [TOLCAPONE],> 500,solubility [3]: 115 µg/mL
O=C(O)C1N=C(c2ccccc2)c2cc(Cl)ccc2NC1=O (centres undefined) [CLORAZEPIC ACID],> 495,
COc1ccc(C(=O)N2CCCC2=O)cc1,500,
CCN1CCC[C@H]1CNC(=O)c1c(OC)ccc(Br)c1OC [REMOXIPRIDE],> 500,
CCN1CCCC1CNC(=O)c1cc(S(=O)(=O)CC)c(N)cc1OC (centres undefined) [AMISULPRIDE],> 500,
O=C1Nc2ccc(Cl)cc2C(c2ccccc2Cl)=NC1O (centres undefined) [LORAZEPAM],,"solubility [5]: 0.08 mg/mL; solubility at 24 h, 600 µM ([1]; buffer): 24 µM"
CN(C)CCCC1(c2ccc(F)cc2)OCc2cc(C#N)ccc21 (centres undefined) [CITALOPRAM],> 500,
COCCCC/C(=N\OCCN)c1ccc(C(F)(F)F)cc1 [FLUVOXAMINE],> 500,
